{
  "source": "patent US5283244A",
  "about": "“Fused pyrazine derivatives” (Yamanouchi Pharmaceutical Co., Ltd., priority 1990, dated 1994)",
  "key": {"[1]": {"tested_on": "AMPA receptor", "assay": "[3H]-AMPA binding inhibitory activity", "conditions": "rat cerebral membrane", "description": "Determination of [^3 H]-AMPA Binding Activity\nA mixture (0.5 ml) of about 45 nM [^3 H]-AMPA (2-amino-3-(3-hydroxy-5-methyl-4-isoxazole)propionic acid), about […] of rat cerebral membrane specimen and the test compound was allowed to react on ice-water for 45 minutes. The amount of [^3 H]-AMPA bound to quisqualic acid receptors was determined by the filtration method. Of the total amount of binding, the portion substituted for by 10 μM quisqualic acid was regarded as specific binding. The test compound was evaluated by determining the percentage inhibition of the specific binding."}, "[2]": {"tested_on": "animal model of brain ischemia", "conditions": "reported in the literature; cited from earlier work"}, "[3]": {"tested_on": "NMDA-induced neuropathy, animal models of epilepsy or brain ischemia", "conditions": "reported in the literature; cited from earlier work"}, "[4]": {"tested_on": "DBA/2 mice", "assay": "Audiogenic convulsion inhibitory activity in DBA/2 mice", "format": "in vivo", "conditions": "Mus musculus, ip, 0.25 h, intraperitoneal, given 15 minutes before sound stimulation, read-out: dose at which audiogenic convulsions were inhibited", "description": "Determination of Audiogenic Convulsion Inhibitory Activity in DBA/2 Mice\nTen male mice, 21-28 days old, were placed in a soundproof box and loaded with a sound stimulus of 12 KHz and 120 dB for 1 minute or until the mice developed tonic convulsions.\nThe test compound was suspended in 0.5% methylcellulose solution or dissolved in physiological saline and administered intraperitoneally 45 or 15 minutes before sound stimulation.\nThe effect of the test compound was evaluated according to the onset of convulsion and the minimum effective dose (MED) was determined."}, "[5]": {"tested_on": "nerve cells in the hippocampus CA1", "assay": "Neuron-protective action in the hippocampus, gerbil model of ischemia", "format": "in vivo", "conditions": "administered 60, 70 and 85 minutes after 5-minute ischemia (regimen 2, 30 mg/kg/dose i.p.)", "description": "Neuron-Protective Action in the Hippocampus\nThe protective action on nerve cell necrosis due to cerebral ischemia was tested using a gerbil model of ischemia constructed by occlusion of the bilateral common carotid arteries.\nThe bilateral common carotid arteries of the gerbil were occluded for 5 minutes under halothane anesthesia with the animal kept warm to avoid hypothermia and, then, the animal was allowed to recover from anesthesia. After 4 days, the brain was isolated and sections were prepared for histological examination of the degree of neuronal damage in the hippocampus CA1.\nThe test compound, either suspended in 0.5% methylcellulose solution or dissolved in physiological saline, was administered intraperitoneally. Two dosage regimens were employed. In regimen 1, 30 mg/kg/dose was administered 45 and 15 minutes before ischemia and 5 minutes and 1, 2, 3, 6 and 24 hours after obtaining re-patency. In regimen 2, 30 mg/kg/dose was administered 60, 70 and 85 minutes after obtaining re-patency.\nHistopathological examination was performed using a light microscope. The degree of nerve cell impairment in the hippocampus CA1 area was rated on a 4-point scale of no lesion (score 0), slight necrosis (score 1), moderate necrosis (score 2) and complete necrosis (score 3)."}},
  "note": "Where a name gives a salt, the structure may show the parent alone.",
  "data": [
    {"smiles": "O=c1[nH]c2cc([N+](=O)[O-])c(-n3ccnc3)cc2n(O)c1=O", "note": "[Example 8, 1-hydroxy-7-imidazolyl-6-nitroquinoxaline-2,3-(1H,4H)-dione]", "values": [
      {"measurement": "AMPA receptor binding inhibitory activity", "setting": "[1]; at 1 μM", "value": 96, "unit": "%"},
      {"measurement": "Ki", "setting": "[1]", "value": 21, "unit": "nM"}
    ]},
    {"smiles": "NC1CCN(O)C1=O", "note": "(stereo not shown) [HA-966]", "values": [
      {"measurement": "efficacy in an animal model of brain ischemia", "setting": "[2]", "value": "effective"}
    ]},
    {"smiles": "NS(=O)(=O)c1cccc2c1c([N+](=O)[O-])cc1[nH]c(=O)c(=O)[nH]c12", "note": "[NBQX]", "values": [
      {"measurement": "efficacy in an animal model of brain ischemia", "setting": "[2]", "value": "effective"}
    ]},
    {"smiles": "NC(CCCCCP(=O)(O)O)C(=O)O", "note": "(stereo not shown) [2-amino-7-phosphonoheptanoic acid]", "values": [
      {"measurement": "efficacy in NMDA-induced neuropathy and in animal models of epilepsy or brain ischemia", "setting": "[3]", "value": "effective"}
    ]},
    {"smiles": "O=c1[nH]c2cc(-n3ccnc3)c([N+](=O)[O-])cc2[nH]c1=O", "note": "[Example 15, 6-imidazolyl-7-nitroquinoxaline-2,3-(1H,4H)-dione]", "values": [
      {"measurement": "minimal effective dose", "setting": "[4]", "value": 3, "unit": "mg/kg"},
      {"measurement": "lesion score (hippocampus CA1, scale 0-3)", "setting": "[5]", "value": 1.2},
      {"measurement": "neuron protecting activity", "setting": "[5]", "value": 60, "unit": "%"}
    ]},
    {"smiles": "O=c1[nH]c2cc(-n3ccnc3)c(C(F)(F)F)cc2[nH]c1=O", "note": "[Example 9, 6-(1-imidazolyl)-7-trifluoromethylquinoxaline-2,3-(1H,4H)-dione hydrochloride hydrate]", "values": [
      {"measurement": "minimal effective dose", "setting": "[4]", "value": 3, "unit": "mg/kg"}
    ]},
    {"smiles": "NC(CCCP(=O)(O)O)C(=O)O", "note": "(stereo not shown) [2-amino-5-phosphonovalerianic acid]", "values": [
      {"measurement": "efficacy in NMDA-induced neuropathy and in animal models of epilepsy or brain ischemia", "setting": "[3]", "value": "effective"}
    ]}
  ]
}
